Laboratory results as given in patent US5157039A, “2-quinolinyl methoxy compounds, medical uses and intermediates therefor” (Leo Pharmaceutical Products Ltd., priority 1985, dated 1992).
Like-named read-outs stand apart in the source and are kept apart here.

What was measured:
rat peritoneal mast cell = experiment: Rat peritoneal mast cell histamine release; type: cell-based
Excerpt: Products formed by the enzyme responsible for the first step in leukotriene synthesis, 5-lipoxygenase, which is probably the target enzyme of compounds of the present invention, play a role as mediators of mast cell degranulation. One of the effects of mast cell degranulation is the release of histamine. Thus, 5-lipoxygenase inhibitors may suppress histamine release from mast cells.
In order to investigate this possibility, cells obtained from washings of the peritoneal cavity of rats, were studied. These peritoneal washings contain mainly macrophages and mast cells. The mast cells were passively sensitized with IgE-antibodies to ovalbumin, and then challenged with the antigen, ovalbumin, to induce histamine release. Alternatively, the unsensitized mast cells were exposed to an […], compound 48/80*, which induces histamine release independently of immunologic mechanisms. Histamine released to the medium after degranulation of the peritoneal mast cells was measured by a fluorometric method.
* (the condensation product of N-methyl-p-methoxyphenethylamine with formaldehyde)

[1] = system: leukotriene D4-induced contraction of guinea-pig ileum strips; experiment: Leukotriene D4-induced contraction of isolated guinea-pig ileum strips (leukotriene antagonism); conditions: leukotriene D4 10^-9 M; atropine and indomethacin present
Excerpt: Antagonism of leukotriene mediated effects at the receptor level, in addition to inhibition of leukotriene synthesis, is an additional mode of action of some of the present compounds. Obviously, this dual mechanism is of potentially great interest in preventing leukotriene mediated reactions.
Leukotriene antagonists may be identified by observing the contractions elicited in preparations of guinea-pig ileum strips suspended in physiological buffers by addition of pure leukotriene D4. The ileum strips are connected to an isotonic transducer, and the contractions are continuously recorded on a multichannel recorder.
Before addition of leukotriene D4, atropine and indomethacin are added to the buffer in order to block any cholinergic or prostaglandin-mediated contractile effects. Test compounds to be studied with respect to leukotriene antagonism are dissolved in dimethylsulphoxide (DMSO) and added to the organ bath 2 minutes prior to addition of leukotriene D4 at 10^-9 M (final concentration), the final concentration of DMSO being 0.1%, a concentration which can be shown not to affect the ileum response to leukotriene D4. The test compounds may be added at various concentrations, often beginning at 10^-6 M and then decreasing the concentration in case of antagonism.

[2] = system: asthmatic reaction (airway resistance) in guinea-pigs; experiment: Asthmatic reaction in ovalbumin-hypersensitive guinea-pigs (Konzett-Rossler); type: in vivo, guinea-pig; conditions: ovalbumin i.v. challenge; mepyramine, indomethacin and propranolol pretreated
Excerpt: The other method was used to measure a physiological consequence of leukotriene release in the lungs, an asthmatic attack. Guinea-pigs hypersensitive to ovalbumin were anaestesized and mechanically ventilated with a constant airvolumen ad modum Konzett-Rossler. The animals were pretreated with mepyramine, indomethacin and propranolol to avoid interference with endogenous production of histamine, prostaglandins and β-adrenergic mechanisms, respectively. They were then challenged with an intravenous injection of ovalbumin, and the increase in airway resistance was measured by the respiratory overflow.

5-lipoxygenase = 5-lipoxygenase activity in vitro in A 23187-stimulated rat peritoneal cells (radiolabelled arachidonic acid metabolites); type: cell-based; conditions: final concentrations from 10^-6 M and above
Protocol: The biological activity of the present compounds was determined both in vitro and in vivo. The following method was used to assay 5-lipoxygenase activity in vitro: Rat peritoneal cells were harvested by i.p. injection of 10 ml Hank's balanced salt solution (GIBCO), cat. No. 4025, U.S.A.) containing 12.5 U/ml sodium heparin (Leo, Denmark) in anaesthesized rats. The resulting cell suspension, which mainly contained macrophages, was transferred to a test tube and washed twice by centrifugation (200 g, 10 min.) and resuspended in Hank's balanced salt solution containing 0.5% bovine serum albumin (Sigma Chem. Co., U.S.A.). The cells from 6 rats were finally resuspended in Hank's balanced salt solution containing 5 μCi (1-^14 C) arachidonic acid (The Radiochemical Centre, Amersham, U.K.) and incubated for 90 minutes at 30° C. […] An aliquot of the supernatant was counted by liquid scintillation spectrometry in order to calculate the total radioactive release induced by A 23187 in presence of drugs. […] Radioactive spots were detected by autoradiography (AGFA-GEVAERT, Osray-RPI X-ray film, Belgium), and changes induced by drugs in the metabolic pattern of arachidonic acid were quantified by a laser densitometer (LKB, Ultroscan™ 2202, Bromma, Sweden) in combination with an integrating computer (SP 4100, SpectraPhysics, San Jose, Calif., U.S.A.). […]

cyclooxygenase = experiment: Synthesis of cyclooxygenase products in A 23187-stimulated rat peritoneal cells (same assay); type: cell-based; conditions: final concentrations from 10^-6 M and above
Protocol: The biological activity of the present compounds was determined both in vitro and in vivo. The following method was used to assay 5-lipoxygenase activity in vitro: Rat peritoneal cells were harvested by i.p. injection of 10 ml Hank's balanced salt solution (GIBCO), cat. No. 4025, U.S.A.) containing 12.5 U/ml sodium heparin (Leo, Denmark) in anaesthesized rats. The resulting cell suspension, which mainly contained macrophages, was transferred to a test tube and washed twice by centrifugation (200 g, 10 min.) and resuspended in Hank's balanced salt solution containing 0.5% bovine serum albumin (Sigma Chem. Co., U.S.A.). The cells from 6 rats were finally resuspended in Hank's balanced salt solution containing 5 μCi (1-^14 C) arachidonic acid (The Radiochemical Centre, Amersham, U.K.) and incubated for 90 minutes at 30° C. This caused labelling of cell membrane phospholipids as radioactive arachidonic acid was incorporated in the 2-position of the glycerol moiety. Excess arachidonic acid was then removed by washing the cells twice as described above. The cells were finally resuspended in the same solution at 10^7 cells/ml. 475 μl of the cell suspension was preincubated at 37° C. for 5 minutes with either 5 μl DMSO (control tube), or 5 μl of a drug solution in DMSO. Then 20 μl of a mixture of equal volumes of the calcium ionophore A 23187, 10^-4 M in ethanol (Calbiochem, U.S.A.), and 0.5M CaCl2 in water was added. The final concentration of A 23187 was thus 2×10^-6 M, transferred to an ice-bath and centrifugated for 10 minutes at 3,000 g (4° C.). An aliquot of the supernatant was counted by liquid scintillation spectrometry in order to calculate the total radioactive release induced by A 23187 in presence of drugs. […] Radioactive spots were detected by autoradiography (AGFA-GEVAERT, Osray-RPI X-ray film, Belgium), and changes induced by drugs in the metabolic pattern of arachidonic acid were quantified by a laser densitometer (LKB, Ultroscan™ 2202, Bromma, Sweden) in combination with an integrating computer (SP 4100, SpectraPhysics, San Jose, Calif., U.S.A.). […]

release of leukotrienes = experiment: A 23187-induced leukotriene release in the peritoneal cavity of rats in vivo; design: species or system rat; conditions: administered prior to intraperitoneal A 23187
Protocol: Two in vivo methods were used to assess the effect of either oral or parenteral administration of the compounds to experimental animals on the release of leukotrienes. In the first method, calcium ionophore A 23187 was injected into the peritoneal cavity of adrenalectomized and anaestesized rats. 5 minutes later the cavity was washed, and the leukotrienes were extracted with ethanol and redissolved in water or buffer. The amount of leukotriene D4 released in response to A 23187 was determined by bioassay, using the contraction of an isolated guinea-pig ileum-strip as indicator. Leukotriene C4 and B4 were measured by commercially available radioimmunoassays (New England Nuclear, Dreieich, West Germany, and The Radiochemical Centre, Amersham, U. K., respectively).

gene expression of IL-8 = experiment: Gene expression of IL-8 in endothelial cells, fibroblasts and keratinocytes stimulated by LPS or IL-1; type: cell-based
Excerpt: (§1) These effects were obtained using submicromolar concentrations of the two compounds.

[3] = system: IL-8 mRNA in peripheral blood mononuclear cells (PBMC); experiment: IL-8 mRNA synthesis in LPS-stimulated peripheral blood mononuclear cells (cDNA probe); type: cell-based; conditions: submicromolar concentrations
Excerpt: as §1

[4] = system: IL-1 release from inflammatory cells; experiment: IL-1 release from inflammatory cells; type: cell-based
Excerpt: as §1

IL-1 mRNA in PBMC = experiment: IL-1 mRNA production in LPS-stimulated PBMC; type: cell-based
Excerpt: as §1

[5] = antigen ovalbumin, passively sensitized mast cells, read-out: Inhibition (%) of histamine release induced by Antigen
[6] = compound 48/80, unsensitized mast cells, read-out: Inhibition (%) of histamine release induced by Cp. 48/80

Clc1cc(OCc2ccncc2)ccc1NCc1ccccc1 [Ex. 78, part C, 2-Chloro-4-(4'-pyridylmethoxy)-N-benzylaniline]
inhibition at 10 µM (rat peritoneal mast cell; [5]): 96%
inhibition at 10 µM (rat peritoneal mast cell; [6]): 95%
concentration at which leukotriene D4-induced contraction is inhibited [1]: submicromolar range

Clc1cc(NCc2ccccc2)ccc1OCc1ccncc1 [Ex. 79, part C, 3-Chloro-4-(4'-pyridylmethoxy)-N-benzylaniline]
inhibition at 10 µM (rat peritoneal mast cell; [5]): 100%
inhibition at 10 µM (rat peritoneal mast cell; [6]): 95%

c1ccc(CNc2ccc(OCc3ccc4ccccc4n3)cc2)cc1 [Ex. 38, 4-(2'-Quinolylmethoxy)-N-benzylaniline]
inhibition at 10 µM (rat peritoneal mast cell; [5]): 91%
inhibition at 10 µM (rat peritoneal mast cell; [6]): 85%

CNc1ccc(OCc2cccnc2)cc1 [OT 3447, 4-(3'-Pyridylmethoxy)-N-methylaniline]
asthmatic reaction [2]: significantly reduced
production of 5-HETE (5-lipoxygenase): significant and specific decrease
production of leukotriene B4 (5-lipoxygenase): significant and specific decrease
synthesis of prostaglandin D2 (cyclooxygenase): not affected
synthesis of the cyclooxygenase product HHT (cyclooxygenase): not affected
synthesis of thromboxane B2 (cyclooxygenase): not affected
leukotriene B4 formation (radioimmunoassay) (release of leukotrienes): substantial inhibition
leukotriene C4 formation (radioimmunoassay) (release of leukotrienes): substantial inhibition
leukotriene D4 formation (bioassay, guinea-pig ileum-strip) (release of leukotrienes): substantial inhibition

CNc1ccc(OCc2ccc3ccccc3n2)cc1 [Ex. 10, part C, 4-(2'-Quinolylmethoxy)-N-methylaniline]
inhibition at 10 µM (rat peritoneal mast cell; [5]): 51%
inhibition at 10 µM (rat peritoneal mast cell; [6]): 19%

O=C(O)c1ccc(CN(Cc2cccc(F)c2)c2ccc(OCc3ccc4ccccc4n3)cc2)cc1 [ETH615, 4-(2'-quinolylmethoxy)-N-(3"-fluorobenzyl)-N-(4'"-carboxybenzyl)aniline]
gene expression of IL-8 in endothelial cells (gene expression of IL-8; endothelial cells stimulated by LPS or IL-1): suppress the gene expression of IL-8
gene expression of IL-8 in fibroblasts (gene expression of IL-8; fibroblasts stimulated by LPS or IL-1): suppress the gene expression of IL-8
gene expression of IL-8 in keratinocytes (gene expression of IL-8; keratinocytes stimulated by LPS or IL-1): suppress the gene expression of IL-8
synthesis of IL-8 messenger RNA [3]: inhibit the synthesis of messenger RNA
IL-1 release [4]: suppression of IL-1 release
IL-1 mRNA production (IL-1 mRNA in PBMC): inhibits IL-1 mRNA production

CC(=O)Nc1cccc(OCc2ccc3ccccc3n2)c1 [11 (part A), 3-(2'-Quinolylmethoxy)acetanilide]
concentration at which leukotriene D4-induced contraction is inhibited [1]: submicromolar range

CN(C)c1cccc(OCc2ccc3ccccc3n2)c1 [Example 18, 3-(2'-Quinolylmethoxy)-N,N-dimethylaniline]
concentration at which leukotriene D4-induced contraction is inhibited [1]: submicromolar range

CCCCNc1cccc(OCc2ccc3ccccc3n2)c1 [Example 23, 3-(2'-Quinolylmethoxy)-N-n-butylaniline]
concentration at which leukotriene D4-induced contraction is inhibited [1]: submicromolar range

CCCNc1ccc(OCc2ccccn2)cc1 [Ex. 70]
inhibition at 10 µM (rat peritoneal mast cell; [5]): 100%
inhibition at 10 µM (rat peritoneal mast cell; [6]): 45%

CCCCNc1ccc(OCc2ccc3ccccc3n2)cc1 [Example 22, 4-(2'-Quinolylmethoxy)-N-n-butylaniline]
inhibition at 10 µM (rat peritoneal mast cell; [5]): 100%
inhibition at 10 µM (rat peritoneal mast cell; [6]): 75%
concentration at which leukotriene D4-induced contraction is inhibited [1]: submicromolar range

O=C(O)c1cccc(CN(Cc2ccccc2)c2ccc(OCc3ccc4ccccc4n3)cc2)c1 [ETH647]
synthesis of IL-8 messenger RNA [3]: inhibit the synthesis of messenger RNA

NCCCCCCNc1ccc(OCc2ccc3ccccc3n2)cc1 [Ex. 66, 4-(2'-Quinolylmethoxy)-N-1"-(6"-amino-n-hexyl)aniline]
inhibition at 10 µM (rat peritoneal mast cell; [5]): 100%
inhibition at 10 µM (rat peritoneal mast cell; [6]): 65%

c1ccc(CNc2cccc(OCc3ccc4ccccc4n3)c2)cc1 [Example 39, 3-(2'-Quinolylmethoxy)-N-benzylaniline]
inhibition at 10 µM (rat peritoneal mast cell; [5]): 100%
inhibition at 10 µM (rat peritoneal mast cell; [6]): 95%
concentration at which leukotriene D4-induced contraction is inhibited [1]: submicromolar range

CCCN(CCC)c1ccc(OCc2ccc3ccccc3n2)cc1 [Ex. 77, 4-(2'-Quinolylmethoxy)-N,N-di-n-propylaniline]
inhibition at 10 µM (rat peritoneal mast cell; [5]): 100%
inhibition at 10 µM (rat peritoneal mast cell; [6]): 92%

CNc1cccc(OCc2ccc3ccccc3n2)c1 [11 (part C), 3-(2'-Quinolylmethoxy)-N-methylaniline]
concentration at which leukotriene D4-induced contraction is inhibited [1]: submicromolar range

c1ccc(CNc2cccc(OCc3ccccn3)c2)cc1 [Ex. 68, 3-(2'-Pyridylmethoxy)-N-benzylaniline]
inhibition at 10 µM (rat peritoneal mast cell; [5]): 45%
inhibition at 10 µM (rat peritoneal mast cell; [6]): 17%
